PubChem BioAssay (NCI)
Where “and” joins values, the source holds several entries; their conditions need not be identical. Identical values can stand only once.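 Five concentrations, 48 hours, 96-well plates. Abbreviation: GI50, concentration required for 50% inhibition of growth. The concentration for full growth arrest is given as TGI.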 Where a SMILES comes first, the peptide text is derived from it. The star is where a group is joined. X36 = O=C(c1ccc(-c2ccc(Cl)cc2Cl)o1)*

How the values were obtained:
Assay in all cases: NCI-60 cell line screen, 48 h
ACHN renal = test system: ACHN renal
OVCAR-5 ovarian = test system: OVCAR-5 ovarian
OVCAR-8 ovarian = test system: OVCAR-8 ovarian
A498 renal = test system: A498 renal
NCI/ADR-RES ovarian = test system: NCI/ADR-RES ovarian
HCC-2998 colon = test system: HCC-2998 colon
T-47D breast = test system: T-47D breast
K-562 leukemia = test system: K-562 leukemia
NCI-H460 lung = test system: NCI-H460 lung
OVCAR-4 ovarian = test system: OVCAR-4 ovarian
OVCAR-3 ovarian = test system: OVCAR-3 ovarian

Structure (SMILES)	TGI (ACHN renal)	TGI (OVCAR-5 ovarian)	TGI (OVCAR-8 ovarian)	TGI (A498 renal)	TGI (NCI/ADR-RES ovarian)	TGI (HCC-2998 colon)	TGI (T-47D breast)	TGI (K-562 leukemia)	TGI (NCI-H460 lung)	TGI (OVCAR-4 ovarian)	TGI (OVCAR-3 ovarian)	GI50 (ACHN renal)	GI50 (OVCAR-8 ovarian)	GI50 (HCC-2998 colon)	GI50 (T-47D breast)	GI50 (K-562 leukemia)
COc1ccc(Nc2nc(NS(=O)(=O)c3cc(C)c(Cl)cc3S)n[nH]2)cc1	> 100 µM	> 100 µM	> 100 µM	> 100 µM	> 100 µM	> 100 µM	> 100 µM	> 100 µM	> 100 µM	> 100 µM	> 100 µM	–	–	–	–	–
Cc1ccc([C@H]2CC(=O)C[C@H](c3ccc(C)cc3)C23C(=O)c2ccccc2C3=O)cc1	> 100 µM	> 100 µM	> 100 µM	> 100 µM	30.2 µM	> 100 µM	> 100 µM	> 100 µM	> 100 µM	47.2 µM	> 100 µM	–	–	–	–	–
O=c1c2c([N+](=O)[O-])cccc2nc2[nH]c3ccccc3n12	29 µM	> 75 µM	31 µM	> 75 µM	> 75 µM	52.2 µM	63.4 µM	> 75 µM	> 75 µM	23.9 µM	70.3 µM	–	–	–	–	–
O=C(NCCCCCCNCc1cccc2ccccc12)Nc1cccc2ccccc12	> 100 µM	> 100 µM	> 100 µM	> 100 µM	> 100 µM	> 100 µM	> 100 µM	> 100 µM	> 100 µM	> 100 µM	> 100 µM	–	–	–	–	–
CC(=O)O[C@H]1CC[C@@]2(C)C(=CC[C@H]3[C@@H]4C[C@H](N5CCCC5)[C@H](OC(C)=O)[C@@]4(C)CC[C@@H]32)C1	> 100 µM	> 100 µM	> 100 µM	> 100 µM	> 100 µM	> 100 µM	> 100 µM	> 67.4 µM	> 100 µM	> 100 µM	> 100 µM	–	–	–	–	–
CCC1(C(=O)OC(C)(C)C)OC12C(C)CCCC2C (centres undefined)	54.2 µM	> 100 µM	> 100 µM	> 100 µM	> 100 µM	45.1 µM	> 100 µM	52.8 µM	> 100 µM	> 100 µM	> 100 µM	–	–	–	–	–
C[C@H](N)C(=O)Nc1ccc(-c2nc3ccccc3s2)cc1	32.8 µM	43.6 µM	66.8 µM	90 µM	> 100 µM	45.8 µM	36 µM	37.6 µM	34.8 µM	36.6 µM	36.9 µM	–	–	–	–	–
COc1cc(CNc2ccc(SC)cc2)cc(OC)c1OC	> 100 µM	> 92.1 µM and 87.3 µM	> 92.6 µM and 56 µM	79.4 µM and 67.7 µM	23.9 µM and > 22.6 µM	> 60 µM and 26.6 µM	> 100 µM and 69.8 µM	44.9 µM and > 63.6 µM	> 100 µM	> 100 µM	54.1 µM and 19.6 µM	22.8 µM and 11 µM	27.1 µM and 7.69 µM	11 µM and 4.92 µM	24.7 µM and 7.05 µM	3.99 µM and 1.49 µM
Cc1ccc2nc(Cl)c(/C=N/N3C(=O)/C(=C/c4ccccc4S)N=C3c3ccccc3)cc2c1	> 100 µM	> 100 µM	> 100 µM	> 100 µM	76.5 µM	> 100 µM	> 100 µM	49 µM	> 100 µM	> 100 µM	28.2 µM	–	–	–	–	–
COc1cc(C2SCC(=O)N2c2ccc(-c3ccc(-n4c(-c5ccccc5)nc5ccccc5c4=O)cc3)cc2)cc(OC)c1OC (centres undefined)	> 100 µM	> 100 µM	> 100 µM	> 100 µM	> 100 µM	> 100 µM	> 100 µM	> 100 µM	> 100 µM	> 100 µM	80.9 µM	–	–	–	–	–
C=CCCC(=O)CC(O)(C(F)(F)F)C(F)(F)F	> 100 µM	> 100 µM	> 100 µM	> 100 µM	> 100 µM	> 100 µM	> 100 µM	> 100 µM	> 100 µM	> 100 µM	> 100 µM	–	–	–	–	–
CCC(C)C(NC(=O)CNC(=O)C(Cc1ccccc1)NC(=O)C1CCCN1C(=O)c1ccc(-c2ccc(Cl)cc2Cl)o1)C(=O)OC (centres undefined) (X36-PFGI-OMe; configuration not given here)	> 100 µM	> 100 µM	> 100 µM	54.4 µM	> 100 µM	64 µM	> 100 µM	> 100 µM	> 100 µM	> 100 µM	> 100 µM	–	–	–	–	–
CC(=O)O[C@H]1C#C/C=C\C#CC[C@@H]2C(=O)N[C@@H]12	52.2 µM	> 100 µM	73.1 µM	98.9 µM	> 75.9 µM	> 100 µM	> 100 µM	> 100 µM	37.6 µM	> 100 µM	> 100 µM	–	–	–	–	–
O=C(OCC1OC2OC(c3ccccc3)(n3ccc4c([N+](=O)[O-])ccnc43)OC2C1OC(=O)c1ccccc1)c1ccccc1 (centres undefined)	> 100 µM	> 100 µM	> 100 µM	> 100 µM	> 100 µM	> 100 µM	> 100 µM	> 100 µM	> 100 µM	> 100 µM	> 100 µM	–	–	–	–	–
O=C1CCCCC(=O)OC2(CCCCC2=O)CC1 (centres undefined)	> 100 µM	> 100 µM	> 100 µM	> 100 µM	> 100 µM	> 100 µM	> 100 µM	> 100 µM	> 100 µM	> 100 µM	> 100 µM	–	–	–	–	–
N#C/C(=C\n1ccc(=O)[nH]c1=S)C(N)=O	> 100 µM	> 100 µM	> 100 µM	> 100 µM	> 100 µM	> 100 µM	> 100 µM	> 100 µM	> 100 µM	> 100 µM	0.673 µM	–	–	–	–	–
Cc1ccc2c(=O)cc(-c3cccs3)[nH]c2n1	> 100 µM	> 100 µM	> 100 µM	> 100 µM	11.9 µM	> 83.2 µM	> 67.7 µM	> 100 µM	> 100 µM	> 100 µM	> 100 µM	–	–	–	–	–
COc1ccc(/C=N/N=C(\N)NO)c(O)c1	> 10 µM	> 10 µM	> 10 µM	> 10 µM	> 10 µM	> 10 µM	> 10 µM	> 10 µM	> 10 µM	> 10 µM	> 10 µM	–	–	–	–	–
N#Cc1nc(-c2cccs2)oc1N	> 100 µM	> 100 µM	> 100 µM	> 100 µM	> 100 µM	> 100 µM	> 100 µM	> 100 µM	> 100 µM	> 100 µM	> 100 µM	–	–	–	–	–
